Experimental data: publication PMC6615598, “Novel antibiotics effective against gram-positive and -negative multi-resistant bacteria with limited resistance” (PLoS Biology, 2019)
Where two headings read alike, the source gives them in different places. Starred links: 1 amine or outer side, 2 acyl side, 3 side chain; linkers in the order of their positions; H or OH if unused. Non-standard residues stand in square brackets, D forms with d. Residues, ends and D or L forms follow the SMILES beside them. azaβ3(1Nal) = O=C(CN(Cc1cccc2ccccc12)N[*:1])[*:2]

Columns and labels:
S. aureus ROUS = assay: microbe, parasite or virus in culture
Protocol: (§1) (10−4 M final concentrations). At selected time intervals, 100 μl of reaction mixture was collected, quenched by 200 μl 95% EtOH, and adjusted at pH 2 to prevent peptide adsorption to serum proteins. […] Supernatants were analyzed by RP-HPLC on an Xbridge C18 column with a linear gradient of water, 0.08% TFA, and acetonitrile with 1% TFA. HPLC peak areas were used to calculate the percentages of intact compound remaining at the various time points. MIC and MBC values were determined in triplicate in many ESKAPE clinical isolates, including a dozen MDR S. aureus, by the broth microdilution method. Peptidomimetics and antibiotics were assayed in a concentration range of 1 to 128 μM. The bacterial inoculum (5 × 10^5 colony-forming units [CFUs]/well) was prepared in MHB or CAMHB (150 μl). A Biotek Synergy 2 spectrophotometer was used to record the results after 18–20 h incubation at 35°C (±2°C). […] After every hour of culture for 4 h, serial dilutions were plated on BHI plates and incubated overnight at 37°C, and then the CFUs were counted and expressed as log CFU/ml. Phosphate-buffered saline (PBS)-exposed S. aureus MRSA was included as a control.
(§2) Supplementary file pbio.3000337.s007.docx: S1 Table Antibacterial activity of the 4 peptidomimetics focusing on 9 S. aureus MDR clinical isolates. Clinical isolates BCB/POE and 740404 DUN are from human sepsis. The other strains are from catheter infections or suppurating wounds. Brilacidin was used as a control. MDR, multidrug resistant. (DOCX) Click here for additional data file.

S. aureus 702697 HOU = assay: microbe, parasite or virus in culture
Protocol: as §1, §2

S. aureus Newman = assay: SEM and TEM after treatment at MIC; format: cell-based; details: S. aureus treated at the MIC, 2 h 37°C
Protocol: S. aureus Newman and E. coli K12 were cultured in MHB to an OD600 of 0.5 (10^8 CFU/ml). After adding peptides, samples were incubated at 160 rpm for 2 h at 37°C before centrifugation. Bacteria were exposed to pseudopeptide concentrations at their MIC. Untreated controls were prepared under identical conditions. Cell pellets were obtained after cell suspension centrifugation (1,000–3,000g for 5 min). […] S. aureus Newman samples were embedded in 2% agar and dehydrated in a graded series of increasing ethanol concentrations (50, 70, 90, and 100% v/v). For E. coli K12, the samples were placed on a 0.2 μm filter disc, dehydrated in a series of increasing ethanol concentrations, and vacuum dried for 48 h. For SEM observation, specimens were obtained after preparation with a Leica EM CPD300 critical point dryer. A Leica EM ACE200 was used for gold palladium metallization for 30 s. Sample observation was performed with a JEOL JSM-6301F microscope at 7 kV with a 15 mm work distance. TEM was also used to visualize the morphology and intracellular alteration of peptide-treated bacterial cells. For this, bacteria were grown and incubated with AMPs as described above for SEM sample preparation, and controls were prepared in standard medium. Cell pellets were also prepared as described above. […]

E. coli ML-35p = assay: Outer membrane permeability, nitrocefin cleavage; format: cell-based; details: concentration near MIC
Protocol: Outer and inner membrane permeability was determined on E. coli ML-35p, a lactose permease-deficient strain [8]. Permeation assays were carried out on 100 μl MHB from bacteria cultures grown to 0.15 OD600 (10^7 CFU/ml). Nitrocefin (20 μg/ml) was added to the tested molecules at a concentration near to their MICs, and cleavage was monitored by light absorption at 500 nm (outer membrane monitoring). Inner membrane monitoring of cleavage of ONPG (100 μg/ml) and substrate was monitored at 420 nm. Polymyxin B was a positive control, while a bacterial suspension in MHB was the negative control. Permeation assays were also performed on gram-positive S. aureus membranes (MSSA and MRSA) by fluorescence assay with SYTO Green nucleic acid stain (Life Technologies) in black flat-bottom 96-well microtiter plates (Greiner) in biological triplicate. Bacteria were grown to 0.3–0.4 OD600 in CAMHB at 37°C and centrifuged at 3,500 tr/min for 10 min. The pellet was washed and dissolved in PBS to an absorbance of 0.4 at 600 nm (approximately 2.10^8 CFU/ml). […] The amount of 50 μL of bacteria/SYTO Green mixture was added to each well containing compounds serially diluted in PBS, and fluorescence was measured at 37°C for up to 12 h using a spectrophotometer (BIOTEK, Tungsten-Halogen Lamp) with 485 nm excitation and 525 nm emission wavelengths.

[1] = parameters: species or system mice; details: mouse, in vivo, iv
Protocol: Control embryos were injected with 1 nl of water. […] Each animal was checked for mortality twice per day. […] RBCs were washed until the supernatant was clear. […] RBCs in PBS were a negative control without hemolysis.
Supplementary file pbio.3000337.s011.docx: S5 Table Mice toxicity assays. Clinical signs observed on Day 1 after IV administration of each of the peptide and pseudopeptides in sets of 3 mice. Not observed symptoms are marked with a dash. (DOCX) Click here for additional data file.

## CC(C)[C@@H]1NC(=O)[C@H](CCCNC(=N)N)NC(=O)[C@H](CCCNC(=N)N)NC(=O)[C@H](Cc2c[nH]c3ccccc23)NC(=O)[C@H](Cc2ccccc2)NC(=O)[C@H](Cc2ccccc2)NC(=O)[C@H](CCCCN)NC1=O [Pep18] (cyclo(FFWRRVK))
S. aureus ROUS; MDR S. aureus clinical isolate ROUS
  MIC: 8 mg/L^-1
S. aureus 702697 HOU; MDR S. aureus clinical isolate 702697 HOU
  MIC: 16 mg/L^-1

## CC(C)[C@@H]1NC(=O)[C@H](CCCNC(=N)N)NC(=O)[C@H](CCCNC(=N)N)NC(=O)CN(Cc2cccc3ccccc23)NC(=O)[C@H](Cc2ccccc2)NC(=O)CN(Cc2cccc3ccccc23)NC(=O)[C@H](CCCCN)NC1=O [Pep19] (cyclo([azaβ3(1Nal)]F[azaβ3(1Nal)]RRVK))
S. aureus ROUS; ROUS
  MIC: 2 mg/L^-1
S. aureus 702697 HOU; 702697 HOU
  MIC: 4 mg/L^-1
S. aureus Newman
  Cell wall erosion by electron microscopy: eroded
E. coli ML-35p
  Outer membrane permeation: most active
[1]
  Abdominal breathing, mice with sign: -
  Half-closed eyes, mice with sign: -
  Hindlimbs widespread, mice with sign: 1
  Piloerection, mice with sign: 3
[1]; 2 mg/kg
  Abdominal breathing, mice with sign: -
  Decreased grasping reflex, mice with sign: -
  Dyspnea, mice with sign: -
  Half-closed eyes, mice with sign: -
  Hunched posture, mice with sign: 1
  Hypoactivity, mice with sign: 1
  Hypotonia, mice with sign: -
  Piloerection, mice with sign: 3
  Red-colored ears, mice with sign: -
  Red-colored eyes, mice with sign: -
  Staggering gait, mice with sign: 1
  Sudden startle, mice with sign: -
[1]; […]
  Decreased grasping reflex, mice with sign: -
  Half-closed eyes, mice with sign: -
  Hypotonia, mice with sign: -
  Piloerection, mice with sign: 3
  Red-colored ears, mice with sign: -
  Red-colored eyes, mice with sign: -
